PMC9097129, “C-terminal mini-PEGylation of a marine peptide N6 had potent antibacterial and anti-inflammatory properties against Escherichia coli and Salmonella strains in vitro and in vivo” (BMC Microbiology, 2022)
Converted amounts (≈) assume the structure as drawn. Bridge positions count the residues as written; N and C are the ends. Square brackets hold non-standard residues; d marks the D form. Peptide text beside a SMILES is read from it. AEEA = NCCOCCOCC(=O)O

Experiments:
[1] = system: S. pullorum CVCC533; assay: Bacterial translocation, bacterial loads in organs; type: in vivo, mice; parameters: bacteria counted in the organs of mice infected with S. pullorum: unit not given here
Procedure: The mice (10 mice/group) were challenged with E. coli CVCC195 (1 × 10^9 CFU/mL, 0.2 mL) or S. pullorum CVCC533 (5 × 10^7 CFU/mL, 0.2 mL) by intraperitoneal injection and treated with N6 (4 and 10 μmol/kg) or N6-COOH-miniPEG (4 and 10 μmol/kg). To evaluate bacterial loads in organs, the livers, spleens, kidneys and lungs were removed from the sacrificed mice at 24 h post treatment and homogenized in sterile PBS for E. coli CVCC195 colony counting; similarly, the livers, spleens, kidneys and lungs were removed from the sacrificed mice at 48 h after treatment and homogenized in sterile PBS for S. pullorum CVCC533 colony counting. The uninfected mice served as the blank control (CK); the infected mice treated with PBS were used as the negative control. The mice were sacrificed by neck dislocation under inhaled isoflurane anesthesia (RWD Life Science Co., LTD. Shenzhen, China).

[2] = system: E. coli 0111:B4 LPS; assay: Endotoxemia mouse model, serum cytokines by ELISA; type: in vivo, mice; parameters: levels of TNF-α in sera: unit not given here; details: for Decrease of serum IL-1β level / Decrease of serum IL-6 level / Decrease of serum IL-10 level / Decrease of serum TNF-α level: LPS 10 mg/kg i.p., peptides 0.25 μmol/kg, PMB 10 μmol/kg, CIP 5 μmol/kg; for levels of IL-1β in sera / levels of TNF-α in sera: ELISA kit, mean of n = 3
Procedure: The mice (10 mice/group) were injected intraperitoneally with N6 and N6-COOH-miniPEG (0.25 μmol/kg), PMB (10 μmol/kg) or CIP (5 μmol/kg) 0.5 h after challenge with 10 mg/kg E. coli 0111:B4 LPS. Blood was collected in a heparin sodium tube at 2 or 8 h after LPS injection and incubated for 30 min at 37 °C and then overnight at 4 °C. After centrifugation at 3,000 rpm for 10 min at 4 °C, serum was collected from supernatant. The cytokine levels of TNF-α, IL-6, IL-1β and IL-10 in serum were detected by the Jiaxuan Biotech. Co. Ltd. (Beijing, China) using an ELISA. […]

[3] = system: S. pullorum CVCC533; assay: Organ injury, histopathology (HE); type: in vivo, mice; details: 48 h and 4 d post-treatment, peptides 10 μmol/kg, HE staining
Procedure: The mice were treated with N6 (4 and 10 μmol/kg) and N6-COOH-miniPEG (4 and 10 μmol/kg) after intraperitoneal injection of E. coli CVCC195 for 0.5 and 8 h or S. pullorum CVCC533 for 0.5 h as described above. Livers, spleens, kidneys and lungs were removed from the mice at 24 h and 5 d post-treatment after E. coli CVCC195 injection and at 48 h and 4 d post-treatment after S. pullorum CVCC533 injection, respectively, washed in PBS, fixed in 4% paraformaldehyde at 4 °C for 24 h, and stained with hematoxylin and eosin (HE) for histopathology analysis. Finally, the tissue samples were fixed and observed by the light microscope. The uninfected mice served as the blank control (CK); the infected mice being treated with PBS were used as the negative control.

[4] = system: S. pullorum CVCC533; assay: Time-killing curves; type: cell-based, Salmonella pullorum; details: 1 × MIC
Procedure: The sample (100 μL) was taken from each flask at 0, 0.5, 1, 2, 4, 6, 8, 10, 12, and 24 h, respectively and serially diluted for colony counting. The group untreated with peptides was a blank control. PMB and CIP were used as the positive control. Similarly, bacterial cells (1 × 10^5 CFU/mL) were incubated with 3/128, 1/32, 3/64, 1/16, 3/32, 1/8, 3/16, 1/4, 3/8, 1/2, 3/4, 1, 2, 3, and 4 × MIC N6 or N6-COOH-miniPEG. The sample was taken from each flask at 24 h and serially diluted for colony counting.

[5] = system: S. pullorum CVCC533; assay: Mouse peritonitis model, survival; type: in vivo, ICR mice
Procedure: Similarly, after the intraperitoneal injection with S. pullorum CVCC533 (5 × 10^7 CFU/mL, 0.2 mL), the mice were treated with N6 (8 and 10 μmol/kg), N6-COOH-miniPEG (8 and 10 μmol/kg) or CIP (0.8 and 1 μmol/kg) at 0.5 h, respectively. The mice injected with antibiotics or PBS served as the positive and blank control (CK), respectively. Survival of the mice was recorded daily for 7 d.

[6] = system: C. albicans CMCC98001; type: cell-based, Candida albicans
Procedure: (§1) The MIC was determined according to the method developed by Clinical and Laboratory Standards Institute (CLSI). The strains were cultured in Mueller–Hinton Broth medium (MHB) at the appropriate temperature until mid-log phase. A series of two-fold dilutions of N6 and PEGylated N6 (10 μL) and bacterial suspension (1 × 10^5 CFU/mL, 90 μL) were added into 96-well plates and incubated at 37 °C for 18 – 24 h. PBS and MHB were used as the negative and blank control, respectively. All assays were conducted in triplicate.

[7] = system: E. coli ATCCO157; type: cell-based, Escherichia coli; details: MHB, 1 × 10^5 CFU/mL, 37 °C, 18 – 24 h, triplicate
Procedure: as §1

[8] = system: E. coli CVCC1515; type: cell-based, Escherichia coli
Procedure: as §1

[9] = system: E. coli CVCC25922; type: cell-based, Escherichia coli
Procedure: as §1

[10] = system: E. coli CVCC195; type: cell-based, Escherichia coli
Procedure: as §1

[11] = system: S. aureus ATCC546; type: cell-based
Procedure: as §1

[12] = system: P. aeruginosa CICC21630; type: cell-based
Procedure: as §1

[13] = system: S. typhimurium ATCC14028; type: cell-based
Procedure: as §1

[14] = system: S. hyicus NCTC10350; type: cell-based
Procedure: as §1

[15] = system: S. aureus ATCC43300; type: cell-based
Procedure: as §1

[16] = system: S. enteritidis CVCC3377; type: cell-based
Procedure: as §1

[17] = system: S. aureus ATCC25923; type: cell-based
Procedure: as §1

[18] = system: S. pullorum CVCC1789; type: cell-based, Salmonella pullorum
Procedure: as §1

[19] = system: S. pullorum CVCC533; type: cell-based, Salmonella pullorum
Procedure: as §1

[20] = system: S. pullorum CVCC1802; type: cell-based, Salmonella pullorum
Procedure: as §1

[21] = peptides 10 μmol/kg, CIP 1 μmol/kg, 48 h after treatment, versus untreated infected mice

O=C(O)c1cn(C2CC2)c2cc(N3CCNCC3)c(F)cc2c1=O [CIP]
bacteria counted in the organs of mice infected with S. pullorum ([1]; Kidney, mean): 3.299 | bacteria counted in the organs of mice infected with S. pullorum ([1]; Liver, replicate 1): 3.641 | bacteria counted in the organs of mice infected with S. pullorum ([1]; Liver, replicate 2): 4.221 | bacteria counted in the organs of mice infected with S. pullorum ([1]; Lung, mean): 3.527 | bacteria counted in the organs of mice infected with S. pullorum ([1]; Spleen, replicate 1): 4.255 | bacteria counted in the organs of mice infected with S. pullorum ([1]; Spleen, replicate 2): 4.222 | bacteria counted in the organs of mice infected with S. pullorum ([1]; Spleen, replicate 3): 3.905 | Decrease of bacterial count in kidneys [1, 21]: 40.20% | Decrease of bacterial count in livers [1, 21]: 31.66% | Decrease of bacterial count in lungs [1, 21]: 43.65% | Decrease of bacterial count in spleens [1, 21]: 47.75% | Decrease of serum IL-1β level ([2]; 2 h): 9.13% | Decrease of serum IL-6 level ([2]; 2 h): 30.83% | Decrease of serum IL-10 level ([2]; 2 h): 15.33% | Decrease of serum TNF-α level ([2]; 2 h): 1.78% | levels of IL-1β in sera ([2]; 2 h after treatment): 87.9333 | levels of TNF-α in sera ([2]; 2 h after treatment): 153 | Decrease of serum IL-1β level ([2]; 8 h): 0.07% | Decrease of serum IL-6 level ([2]; 8 h): -0.24% | Decrease of serum IL-10 level ([2]; 8 h): 0.13% | Decrease of serum TNF-α level ([2]; 8 h): -0.37% | levels of IL-1β in sera ([2]; 8 h after treatment): 171.167 | levels of TNF-α in sera ([2]; 8 h after treatment): 559.733 | Organ injury, histopathology [3]: apparently less damage of liver, spleen, kidney and lung | Time to kill 99.9% of cells [4]: ≤ 6 h | survival of mice in S. pullorum lethal model ([5]; 0.8 μmol/kg, day 0): 100 | survival of mice in S. pullorum lethal model ([5]; 0.8 μmol/kg, day 1): 100 | survival of mice in S. pullorum lethal model ([5]; 0.8 μmol/kg, day 2): 100 | survival of mice in S. pullorum lethal model ([5]; 0.8 μmol/kg, day 3): 100 | survival of mice in S. pullorum lethal model ([5]; 0.8 μmol/kg, day 4): 83.3333 | survival of mice in S. pullorum lethal model ([5]; 0.8 μmol/kg, day 5): 83.3333 | survival of mice in S. pullorum lethal model ([5]; 0.8 μmol/kg, day 6): 83.3333 | survival of mice in S. pullorum lethal model ([5]; 0.8 μmol/kg, day 7): 83.3333 | Survival rate of mice ([5]; 1 μmol/kg i.p. at 0.5 h (legend of Fig. 6: 0.5 and 8 h), 7 d): 100% | survival of mice in S. pullorum lethal model ([5]; 1 μmol/kg, day 0): 100 | survival of mice in S. pullorum lethal model ([5]; 1 μmol/kg, day 1): 100 | survival of mice in S. pullorum lethal model ([5]; 1 μmol/kg, day 2): 100 | survival of mice in S. pullorum lethal model ([5]; 1 μmol/kg, day 3): 100 | survival of mice in S. pullorum lethal model ([5]; 1 μmol/kg, day 4): 100 | survival of mice in S. pullorum lethal model ([5]; 1 μmol/kg, day 5): 100 | survival of mice in S. pullorum lethal model ([5]; 1 μmol/kg, day 6): 100 | survival of mice in S. pullorum lethal model ([5]; 1 μmol/kg, day 7): 100

CC(C)[C@@H]1NC(=O)CNC(=O)[C@H](CC(N)=O)NC(=O)[C@H](CCCNC(=N)N)NC(=O)[C@H](Cc2ccc(O)cc2)NC(=O)[C@H](C(C)C)NC(=O)[C@@H](NC(=O)[C@@H](NC(=O)[C@H](CC(N)=O)NC(=O)[C@H](Cc2c[nH]c3ccccc23)NC(=O)[C@H](C)NC(=O)[C@H](Cc2ccccc2)NC(=O)CNC(=O)COCCOCCN)C(C)C)CSSC[C@@H](C(=O)N[C@@H](Cc2c[nH]cn2)C(=O)N[C@@H](CCCNC(=N)N)C(=O)N[C@@H](CCCNC(=N)N)C(=O)N[C@@H](C)C(=O)N[C@@H](CC(N)=O)C(=O)O)NC(=O)[C@H](C(C)C)NC(=O)[C@H](CCCNC(=N)N)NC1=O [N6-NH2-miniPEG] (H-[AEEA]GFAWNVCVYRNGVRVCHRRAN-OH; disulfide 8-17)
MIC [6]: > 48.84 µM | MIC [7]: 6.10 µM (≈ 16 µg/mL) | MIC [8]: 6.1 µM (≈ 16 µg/mL) | MIC [9]: 3.05 µM (≈ 7.99 µg/mL) | MIC [10]: 6.1 µM (≈ 16 µg/mL) | MIC [11]: 48.84 µM (≈ 128 µg/mL) | MIC [12]: 24.42 µM (≈ 64 µg/mL) | MIC [13]: 6.10 µM (≈ 16 µg/mL) | MIC [14]: > 48.84 µM | MIC [15]: 48.84 µM (≈ 128 µg/mL) | MIC [16]: 6.10 µM (≈ 16 µg/mL) | MIC [17]: > 48.84 µM | MIC [18]: 6.10 µM (≈ 16 µg/mL) | MIC [19]: 12.21 µM (≈ 32 µg/mL) | MIC [20]: 6.10 µM (≈ 16 µg/mL)
